Results reported in ChEMBL document CHEMBL5126521, “Analgesic Opioid Ligand Discovery Based on Nonmorphinan Scaffolds Derived from Natural Sources” (J Med Chem, 2022).
Square brackets hold non-standard residues; d marks the D form. Peptide text beside a SMILES is read from it. βAla = NCCC(=O)O

What was measured:
[1] = system: Rattus norvegicus; assay: Antinociceptive activity in rat administered iv; assay type: functional
[2] = target: Mu-type opioid receptor (Mus musculus, UniProt P42866); assay: Antagonist activity at mouse vas deferns MOP; assay type: functional
[3] = target: T1, Mu-type opioid receptor (Cavia porcellus, UniProt P97266); assay: Antagonist activity at guinea pig ileum MOP; assay type: functional, tissue-based
[4] = system: Rattus norvegicus; assay: Antinociceptive activity in rat at 9 to 120 nmol icv or sc; assay type: functional; conditions: dose 9-120 nmol
[5] = Toxicity in rat assessed as inhibition of hypercapnic respiratory response at 9 to 120 nmol icv or sc; conditions: in vivo, icv_or_intrathecal, dose 9-120 nmol
[6] = target: T2, Kappa-type opioid receptor (Cavia porcellus, UniProt P41144); assay: Displacement of [3H]U69593 from guinea pig brain KOP incubated for 90 mins by scintillation counter; assay type: tissue-based
[7] = target: Mu-type opioid receptor (Rattus norvegicus, UniProt P33535); assay: Displacement of [3H]DAGO from rat brain MOP incubated for 90 mins by scintillation counter; assay type: tissue-based
[8] = system: Rattus norvegicus; assay: Antinociceptive activity in rat administered icv; assay type: functional
[9] = target: Delta-type opioid receptor (Rattus norvegicus, UniProt P33533); assay: Displacement of [3H][DAla2]deltorphin-I from rat brain DOP incubated for 90 mins by scintillation counter; assay type: tissue-based
[10] = species: Mus musculus; assay: Antinociceptive activity in mouse; assay type: functional
[11] = system: Mus musculus; assay: Antinociceptive activity in mouse at 3.2 to 32 pmol IT or sc; assay type: functional; conditions: dose 3.2-32 pmol
[12] = Displacement of [3H]DPDPE from calf frontal cortex membrane Delta-type opioid receptor by competitive binding assay; assay type: cell membranes, Bos taurus
[13] = target: Mu-type opioid receptor (Bos taurus, UniProt P79350); assay: Displacement of [3H]DAMGO from calf thalamus membrane MOP by competitive binding assay; assay type: cell membranes
[14] = Toxicity in mouse assessed as inhibition of gastrointestinal transit at 3.2 to 32 pmol IT or sc by charcoal meal test; assay type: organism-based; conditions: in vivo, other, dose 3.2-32 pmol
[15] = target: T3, Kappa-type opioid receptor (Mus musculus, UniProt P33534); assay: Displacement of [3H]U69593 from mouse brain membrane KOP by competitive binding assay; assay type: cell membranes
[16] = system: Mus musculus; assay: Antinociceptive activity in sc dosed mouse assessed as tail flick latency; assay type: functional
[17] = system: Mus musculus; assay: Antinociceptive activity in icv dosed mouse assessed as tail flick latency; assay type: functional
[18] = Displacement of [3H]naltrindole from guinea pig brain membrane DOP incubated for 3 hr by scintillation counter analysis; assay type: cell membranes, Cavia porcellus
[19] = system: Mus musculus; assay: Antinociceptive activity in po dosed visceral pain mouse model; assay type: functional
[20] = system: Mus musculus; assay: Antinociceptive activity in sc dosed mouse by hot plate assay; assay type: functional
[21] = system: Mus musculus; assay: Antinociceptive activity in po dosed mouse by tail flick assay; assay type: functional
[22] = Toxicity in po dosed mouse assessed as antinociceptive activity tolerance by hot plate assay; assay type: organism-based; conditions: in vivo
[23] = target: T1, Mu-type opioid receptor; assay: Displacement of [3H]DAMGO from guinea pig brain membrane MOP incubated for 1 hr by scintillation counter analysis; assay type: cell membranes
[24] = target: T2, Kappa-type opioid receptor; assay: Displacement of [3H]U69593 from guinea pig brain membrane KOP incubated for 1 hr by scintillation counter analysis; assay type: cell membranes
[25] = system: Mus musculus; assay: Antinociceptive activity in po dosed mouse by hot plate assay; assay type: functional
[26] = system: Mus musculus; assay: Antinociceptive activity in sc dosed mouse by tail flick assay; assay type: functional
[27] = Toxicity in po dosed mouse assessed as antinociceptive activity tolerance by tail flick assay; assay type: organism-based; conditions: in vivo
[28] = system: Mus musculus; assay: Antinociceptive activity in sc dosed mouse; assay type: functional
[29] = target: T4, Mu-type opioid receptor (Homo sapiens, UniProt P35372); assay: Agonist activity at human MOP stably expressed in CHO-K1 cells assessed as inhibition of forskolin-induced cAMP accumulation; assay type: functional, cell-based
[30] = target: T5, Kappa-type opioid receptor (Homo sapiens, UniProt P41145); assay: Agonist activity at KOP (unknown origin) assessed as inhibition of forskolin-induced cAMP accumulation; assay type: functional
[31] = system: Mus musculus; assay: Antinociceptive activity in ip dosed mouse assessed as tail flick latency; assay type: functional
[32] = target: T3, Kappa-type opioid receptor; assay: Agonist activity at C57BL6/J mouse brain KOP by calcium mobilization assay; assay type: functional, tissue-based
[33] = target: T3, Kappa-type opioid receptor; assay: Agonist activity at C57BL6/J mouse brain KOP; assay type: functional, tissue-based
[34] = target: T3, Kappa-type opioid receptor; assay: Displacement of [3H]U69593 from C57BL6/J mouse brain KOP; assay type: tissue-based
[35] = Toxicity in sc dosed mouse assessed as antinociceptive activity tolerance by tail flick assay; assay type: organism-based; conditions: in vivo
[36] = system: Mus musculus; assay: Antinociceptive activity in po dosed mouse; assay type: functional
[37] = target: T6, Delta-type opioid receptor (Homo sapiens, UniProt P41143); assay: Binding affinity to DOP (unknown origin)
[38] = target: T6, Delta-type opioid receptor; assay: Inhibition of DOP (unknown origin)
[39] = system: Mus musculus; assay: Antinociceptive activity in sc dosed visceral pain mouse model; assay type: functional
[40] = target: T3, Kappa-type opioid receptor; assay: Inhibition of mouse KOP
[41] = target: T4, Mu-type opioid receptor; assay: Binding affinity to MOP (unknown origin)
[42] = target: T4, Mu-type opioid receptor; assay: Agonist activity at MOP (unknown origin); assay type: functional
[43] = target: Delta-type opioid receptor (Mus musculus, UniProt P32300); assay: Inhibition of mouse DOP
[44] = target: T5, Kappa-type opioid receptor; assay: Inhibition of KOP (unknown origin)
[45] = Toxicity in ip dosed mouse assessed as antinociceptive tolerance; assay type: organism-based; conditions: in vivo
[46] = target: T5, Kappa-type opioid receptor; assay: Agonist activity at KOP (unknown origin); assay type: functional
[47] = target: T4, Mu-type opioid receptor; assay: Inhibition of MOP (unknown origin)
[48] = system: Mus musculus; assay: Antinociceptive activity in ip dosed C57BL/6J mouse assessed as tail withdrawal latency from warm water; assay type: functional

## C[C@@H](NC(=O)[C@@H](N)Cc1ccc(O)cc1)C(=O)N[C@@H](Cc1ccccc1)C(=O)NCC(=O)N[C@@H](Cc1ccc(O)cc1)C(=O)N1CCC[C@H]1C(=O)N[C@@H](CCCCN)C(N)=O
[1]
  ED50: 0.06 µmol/kg
[2]
  IC50: 52 nM
[3]
  IC50: 1.7 nM
[4]
  ED50: 21.5 µmol/kg
[5]
  Activity: 45.9 µmol/kg
[6]
  Ki: 617 nM
[7]
  Ki: 0.09 nM
[8]
  ED50: 0.03 pmol
[9]
  Ki: 1100 nM
[10]
  ED50: 0.22 µmol/kg

## Cc1cc(O)cc(C)c1C[C@H](N)C(=O)N[C@H](CCCNC(=N)N)C(=O)N[C@@H](Cc1ccccc1)C(=O)N[C@@H](CCCCN)C(N)=O
[11]
  ED50: 0.0655 mg/kg
[12]
  Ki: 116 nM
[13]
  Ki: 0.14 nM
[14]
  ED50: 6 µg/kg
[15]
  Ki: 11.5 nM

## COC(=O)[C@@H]1C[C@H](OC(C)=O)C(=O)[C@H]2[C@@]1(C)CC[C@H]1C(=O)O[C@H](c3ccoc3)C[C@]21C [SALVINORIN A]
[16]
  ED50: 2.1 mg/kg
[17]
  ED50: 1.5 µg

## CC[C@@H]1CN2CC[C@@]34OCCO[C@@]3(Nc3ccc(F)c(OC)c34)[C@@H]2C[C@@H]1/C(=C\OC)C(=O)OC
[18]
  Ki: 350 nM
[19]
  ED50: 0.6 mg/kg
[20]
  ED50: 0.7 mg/kg
[21]
  ED50: 2.8 mg/kg
[22]
  ED50: 1.3 mg/kg
[23]
  Ki: 7.3 nM
[24]
  Ki: 18 nM
[25]
  ED50: 3 mg/kg
[26]
  ED50: 0.6 mg/kg
[27]
  ED50: 11.1 mg/kg
[28]
  ED50: 0.1 mg/kg

## COC(=O)[C@@H]1C[C@H](OC(=O)c2ccc(CO)cc2)C(=O)[C@H]2[C@@]1(C)CC[C@H]1C(=O)O[C@H](c3ccoc3)C[C@]21C
[29]
  EC50: 0.03 nM
[30]
  EC50: > 10 µM
[31]
  ED50: 2.35 mg/kg

## CCC(=O)O[C@H]1C[C@@H](C(=O)OC)[C@]2(C)CC[C@H]3C(=O)O[C@H](c4ccoc4)C[C@]3(C)[C@H]2C1=O
[32]
  EC50: 102 nM
[33]
  EC50: 17 nM
[34]
  Ki: 32.6 nM

## CC[C@@H]1CN2CC[C@]3(O)c4c(cccc4OC)NC3[C@@H]2C[C@@H]1/C(=C\OC)C(=O)OC (stereo partly drawn)
[35]
  ED50: 1.19 mg/kg
[36]
  ED50: 1.1 mg/kg
[18]
  Ki: 96 nM
[37]
  Ki: 0.219 µM
[38]
  IC50: 2.52 µM
[20]
  ED50: 0.93 mg/kg
[39]
  ED50: 0.15 mg/kg
[21]
  ED50: 4.4 mg/kg
[40]
  IC50: 7.9 µM
[23]
  Ki: 11 nM
[41]
  Ki: 47 nM
[42]
  EC50: 34.5 nM
[24]
  Ki: 85 nM
[25]
  ED50: 2.2 mg/kg
[26]
  ED50: 0.8 mg/kg
[27]
  ED50: 7.5 mg/kg
[43]
  IC50: 10 µM
[44]
  IC50: 0.691 µM

## COC(=O)[C@@H]1C=C(OC(=O)c2ccccc2)C(=O)[C@H]2[C@@]1(C)CC[C@H]1C(=O)O[C@H](c3ccoc3)C[C@]21C
[45]
  ED50: 7.9 mg/kg
[31]
  ED50: 5 mg/kg

## CC[C@@H]1CN2CCc3c([nH]c4cccc(OC)c34)[C@@H]2C[C@@H]1/C(=C\OC)C(=O)OC
[37]
  Ki: > 10 µM
[38]
  IC50: > 10 µM
[21]
  ED50: 2.1 mg/kg
[46]
  EC50: 8.5 µM

## C=C[C@H]1CN2CCc3c([nH]c4cccc(OC)c34)[C@@H]2C[C@@H]1/C(=C\OC)C(=O)OC
[37]
  Ki: > 10 µM
[38]
  IC50: > 10 µM
[47]
  IC50: 2200 nM
[44]
  IC50: 10 µM

## O=C1NCCC(=O)N2CCC[C@@H]2C(=O)N[C@@H](Cc2ccccc2)C(=O)N[C@H]1Cc1c[nH]c2ccccc12 (cyclo(FW[βAla][dP]))
[48]
  ED50: 0.64 mg/kg
